Data on six molecules can be found in patent publication US8211909B2, “Treatment of antibiotic-resistant bacteria infection” (TaiGen Biotechnology Co., Ltd., priority 2008, dated 2012).

≈ marks a conversion by molar mass, not a printed value. Read-outs that look alike come from different tables or passages of the source.

Experiment [1] concerns Methicillin-resistant Staphylococcus aureus (MRSA) isolates. The experiment in a line: MIC by broth microdilution (CLSI) against CAN-ICU MRSA isolates. The conditions noted are these: Staphylococcus aureus; for MIC50: read-out: MIC50; for MIC90: read-out: MIC90. The format is cell-based. From the text:
MRSA isolates (n=193) were obtained as part of the Canadian National Intensive Care Unit (CAN-ICU) Study. 19 medical centers from all regions of Canada with active ICUs participated in the CAN-ICU study included. They were requested to only obtain “clinically significant” specimens from patients with a presumed infectious disease. Surveillance swabs, eye, ear, nose and throat swabs were excluded. Anaerobic organisms and fungal organisms were also excluded.
From September 2005-June 2006 (inclusive), each center collected a maximum of 300 consecutive pathogens isolated from blood, urine, tissue/wound, and respiratory specimens (one pathogen per cultured site per patient) of ICU patients. These isolates were shipped to the reference laboratory (Health Sciences Centre, Winnipeg, Canada) on Amies charcoal swabs, subcultured in appropriate media, and stocked in skim milk at −80° C.
All isolates underwent mecA PCR, as well as molecular characterization (including PVL analysis and fingerprinting), as previously described, to assess whether they were community-associated or healthcare-associated (Christianson et al., J Clin Microbiol. 2007, 45 (6): 1904-11; Mulvey et al., J Clin. Microbiol. 2001, 39(10): 3481-5; Mulvey et al., Emerg Infect Dis. 2005,11(6): 844-50; Oliveira et al., Antimicrob Agents Chemother. 2002, 46(7): 2155-61). The isolates were also subtyped using pulsed-field gel electrophoresis (PFGE) following the Canadian standardized protocol as previously described (Mulvey et al., J Clin Microbiol. 2001, 39(10): 3481-5). Their PFGE fingerprints thus obtained were analyzed with BioNumerics v3.5 (Applied Maths St. Marten-Latem, Belgium) using a position tolerance of 1.0 and an optimization of 1.0. Strain relatedness was determined as previously described (Tenover et al., 1995). The fingerprints of the isolates were compared to the national MRSA fingerprint database and were grouped into one of 10 Canadian epidemic MRSA (CMRSA-1, CMRSA-2, etc) as previously described (Mulvey et al., Emerg Infect Dis. 2005,11(6):844-50).
Compound 1 and other antibiotics were tested for their inhibitory activity against the MRSA isolates using the broth microdilution guidelines as stipulated by the Clinical and Laboratory Standards Institute.
On the technique in general: Broth dilution looks for growth in wells or tubes with falling amounts of substance.

For experiment [2], the system named is Staphylococcus aureus strains (MRSA, hVISA, VISA, VRSA, quinolone-resistant MRSA). The experiment in a line: MIC by agar dilution against Staphylococcal strains (MRSA, hVISA, VISA, VRSA, quinolone-resistant MRSA). The conditions noted are these: Staphylococcus aureus. The format is cell-based. On the procedure:
Compound 1 was tested for its inhibitory effect against 26 Methicillin-resistant Staphylococcus aureus (MRSA) strains, 2 hetero-Vancomycin intermediate Staphylococcus aureus (hVISA) strains, 24 Vancomycin-intermediate Staphylococcus aureus (VISA) strains, 5 Vancomycin-resistant Staphylococcus aureus (VRSA) strains, and 31 quinolone-resistant Vancomycin-susceptibale MRSA strains with defined mutations in QRDR. These mutations were determined by sequencing analysis of the QRDR (gyrA, gyrB, grlA, and grlB). Efflux testing was performed by the reserpine method (Brenwald, et al., Antimicrob. Agents Chemother. 1998, 42: 2032-2035).
(In general: Agar dilution tests growth on a series of plates holding different concentrations.)

The next experiment has as its system H. pylori isolates. In words: MIC by agar dilution against 200 H. pylori isolates (Taiwan). The format is cell-based, Helicobacter pylori. To be noted: Helicobacter pylori; 200 isolates of H. pylori. On the procedure:
MICs were determined using the agar dilution methods recommended by the Clinical and Laboratory Standards Institute (CLSI-M100-S18).

[3] abbreviates: MRSA (n = 193), read-out: MIC Range Max.
Where [4] appears, read: MRSA (n = 193), read-out: MIC Range Min.
Setting [5] is: hVISA(2) + VISA (24) + VRSA (5).
Setting [6] is: read-out: MIC Range, Quinolone-resistant MRSA (31).
The mark [7] stands for this setting: read-out: MIC Range, hVISA(2) + VISA (24) + VRSA (5).
The mark [8] stands for this setting: MRSA / USA100, USA 100/800 (HA-MRSA).
Setting [9] is: MRSA / USA200, USA 200 (HA-MRSA).
The mark [10] stands for this setting: MRSA / USA300, USA 300 (CA-MRSA).
The mark [11] stands for this setting: MRSA / USA400, USA 400 (CA-MRSA).
The mark [12] stands for this setting: MRSA / USA600, USA 600 (HA-MRSA).

As usually defined, the MIC50 is an inhibitory concentration at the 50% level, which refers to growth in some studies and to a panel of isolates in others. One may read the MIC90 as the lowest concentration that inhibits either 90% of growth or 90% of the strains tested, depending on the study. In general, MIC refers to the smallest concentration in the dilution series that meets the test's criterion for growth inhibition. Regarding `Cc1nnc(SCC2=C(C(=O)O)N3C(=O)[C@@H](NC(=O)Cn4cnnn4)[C@H]3SC2)s1` [Cefazolin], in experiment [1] (MRSA (n = 193)), the MIC50 amounted to 128 µg/mL (≈ 282 µM) and the MIC90 was above 128 µg/mL. Also, in experiment [1] (setting [3]), the minimal inhibitory concentration (MIC) is above 128 µg/mL. In addition, the MIC in experiment [1] (setting [4]) amounted to 2 µg/mL (≈ 4.4 µM).

In the case of `CO/N=C(\C(=O)N[C@@H]1C(=O)N2C(C(=O)O)=C(CSc3nc(=O)c(=O)[nH]n3C)CS[C@H]12)c1csc(N)n1` [Ceftriaxone], in experiment [1] (MRSA (n = 193)), the MIC50 was above 64 µg/mL and the MIC90 is above 64 µg/mL. Besides, the MIC in experiment [1] (setting [3]) is above 64 µg/mL. Further, in experiment [1] (setting [4]), the MIC was 8 µg/mL (≈ 14.4 µM).

As for `CCC[C@@H]1C[C@@H](C(=O)N[C@@H]([C@H]2O[C@H](SC)[C@H](O)[C@@H](O)[C@H]2O)[C@H](C)Cl)N(C)C1` [Clindamycin], the MIC50 in experiment [1] (MRSA (n = 193)) was above 8 µg/mL. In experiment [1] (MRSA (n = 193)), the MIC90 is above 8 µg/mL. Besides, the MIC in experiment [1] (setting [3]) is above 8 µg/mL; in experiment [1] (setting [4]), at most 0.12 µg/mL.

`CCCCCCCCCC(=O)N[C@@H](Cc1c[nH]c2ccccc12)C(=O)N[C@H](CC(N)=O)C(=O)N[C@@H](CC(=O)O)C(=O)N[C@@H]1C(=O)NCC(=O)N[C@@H](CCCN)C(=O)N[C@@H](CC(=O)O)C(=O)N[C@H](C)C(=O)N[C@@H](CC(=O)O)C(=O)NCC(=O)N[C@H](CO)C(=O)N[C@@H]([C@H](C)CC(=O)O)C(=O)N[C@@H](CC(=O)c2ccccc2N)C(=O)O[C@@H]1C` [Daptomycin]: the MIC50 in experiment [1] (MRSA (n = 193)) was determined as 0.25 µg/mL (≈ 0.154 µM); in experiment [2] (MRSA (26)), 1 µg/mL (≈ 0.617 µM); in experiment [2] (Quinolone-resistant MRSA (31)) it was 0.25 µg/mL (≈ 0.154 µM); in experiment [2] (setting [5]), 1 µg/mL. In addition, the MIC90 came out at 0.5 µg/mL (≈ 0.309 µM) in experiment [1] (MRSA (n = 193)), 1 µg/mL (≈ 0.617 µM) in experiment [2] (MRSA (26)), 0.25 µg/mL (≈ 0.154 µM) in experiment [2] (Quinolone-resistant MRSA (31)) and 2 µg/mL in experiment [2] (setting [5]). In addition, the MIC in experiment [1] (setting [3]) is 0.5 µg/mL (≈ 0.309 µM); in experiment [1] (setting [4]), 0.25 µg/mL (≈ 0.154 µM); in experiment [2] (read-out: MIC Range, MRSA (26)) it was 0.5 to 1 µg/mL (≈ 0.309 to 0.617 µM); in experiment [2] (setting [6]), 0.12 to 1 µg/mL (≈ 0.074 to 0.617 µM); in experiment [2] (setting [7]) it was 0.12 to 4 µg/mL.

In the case of `CO/N=C1\CN(c2nc3c(cc2F)c(=O)c(C(=O)O)cn3C2CC2)CC1CN` (centres unmarked) [Gemifloxacin], in the experiment on H. pylori isolates, the MIC50 was found to be 60 µg/mL (≈ 154 µM) and the MIC90 worked out at 120 µg/mL (≈ 308 µM).

With `CC(=O)NC[C@H]1CN(c2ccc(N3CCOCC3)c(F)c2)C(=O)O1` [Linezolid], the MIC50 in experiment [1] (setting [8]) came out at 2 µg/mL (≈ 5.93 µM); in experiment [1] (setting [9]) it was 2 µg/mL (≈ 5.93 µM); in experiment [1] (setting [10]), 1 µg/mL (≈ 2.96 µM); in experiment [1] (setting [11]) it was 2 µg/mL (≈ 5.93 µM); in experiment [1] (setting [12]), 2 µg/mL (≈ 5.93 µM); in experiment [1] (MRSA (n = 193)) it was 2 µg/mL (≈ 5.93 µM). Besides, the figures for the MIC50 in experiment [2] (MRSA (26)), in experiment [2] (Quinolone-resistant MRSA (31)) and in experiment [2] (setting [5]) were 4 µg/mL (≈ 11.9 µM), 1 µg/mL (≈ 2.96 µM) and 1 µg/mL, respectively. Besides, the MIC90 in experiment [1] (setting [8]), in experiment [1] (setting [9]), in experiment [1] (setting [10]), in experiment [1] (setting [11]), in experiment [1] (setting [12]) and in experiment [1] (MRSA (n = 193)) was 2 µg/mL (≈ 5.93 µM) throughout. Further, the MIC90 turned out to be 4 µg/mL (≈ 11.9 µM) in experiment [2] (MRSA (26)), 1 µg/mL (≈ 2.96 µM) in experiment [2] (Quinolone-resistant MRSA (31)) and 1 µg/mL in experiment [2] (setting [5]). The MIC is 4 µg/mL (≈ 11.9 µM) in experiment [1] (setting [3]); 0.5 µg/mL (≈ 1.48 µM) in experiment [1] (setting [4]); 2 to 4 µg/mL (≈ 5.93 to 11.9 µM) in experiment [2] (read-out: MIC Range, MRSA (26)); 0.25 to 1 µg/mL (≈ 0.741 to 2.96 µM) in experiment [2] (setting [6]); 0.5 to 2 µg/mL in experiment [2] (setting [7]).
